Source: patent US20220175761A1, “BI-LIGAND DRUG CONJUGATE AND USE THEREOF” (COHERENT BIOPHARMA (SUZHOU), LIMITED, priority 2019, published 2022)
Values joined by “and” are separate entries in the source; they are usually repeats but may differ in a detail not shown here. Identical values can stand only once. Square brackets hold non-standard residues; d marks the D form. Peptide text beside a SMILES is read from it. * marks the point of attachment. Dolaproine = CO[C@@H]([C@@H]1CCCN1)[C@@H](C)C(=O)O; Dil = CC[C@H](C)[C@H](NC)[C@@H](CC(=O)O)OC; X1 = C[C@@H](N*)[C@@H](O)c1ccccc1; NMeV = CN[C@H](C(=O)O)C(C)C

Columns and labels:
Test in all cases: Inhibition of cell line proliferation, CCK8
Format in all cases: cell-based
[1] = system: LNCaP (human prostate cancer cells); conditions: LNCaP; for IC50: 68-72 hours, CCK8
[2] = system: 22RV1 (human prostate cancer cells); conditions: for IC50: 22RV1, 68-72 hours, CCK8
Source text: Since different cells have different sensitivity to a cell proliferation inhibitory toxicity of the payload in a ligand conjugate, the quantitative analysis may be interfered occasionally. A series of cell lines with known expression levels of receptors of different ligands were selected and tested for the response to inhibitory effects of the cell proliferation of a ligand conjugate and a single payload. The IC50 ratio of a single payload to that of a ligand conjugate in same cell line were taken to remove such interference.
(§1) Experimental operations: LNCaP and 22RV1 cells were prepared in advance, counted, and plated in 96-well cell culture plates at a cell density of 4×10^4 cells/ml and 2.0×10^4 cells/ml, respectively (100 μl/well); negative control and blank control wells were set on each plate. After adherent cell culture overnight, the diluted samples to be tested were added at 50 μl/well. The plates were placed in an incubator at 37° C., 5% CO2 and cultured for 68-72 hours. To each well, 15 μl (10% of the liquid volume in a well) of a color developing solution from CCK8 was added; and the plates were incubated at 37° C. for 45-70 minutes and each plate was read at 450 nm on a microplate reader. The data was edited using SoftMax Pro and a 4-P fitting curve was plotted.

[3] = system: CFPAC-1 (human pancreatic cancer cells); conditions: for IC50: CFPAC-1, 68-72 hours, CCK8
[4] = system: PANC-1 (human pancreatic cancer cells); conditions: for IC50: PANC-1, 68-72 hours, CCK8
Protocol: as §1, with “PANC-1” for “LNCaP”, “CFPAC-1” for “22RV1”, “cells/ml” for “cells/ml and 2.0×10^4 cells/ml, respectively”
(§2) Experimental operations: LNCaP, SK-BR-3, NCI-H226, CFPAC-1 and PANC-1 cells were prepared in advance and counted; with a culture medium (IMDM+10% FBS+1× L-Glutamine+1×P/S), the cells LNCaP, SK-BR-3 and CFPAC-1 were diluted to 4×10^4 cells/ml, NCI-H226 was diluted to 2.0×10^4 cells/ml and PANC-1 was diluted to 3.0×10^4 cells/ml; the diluted cell solution was plated in 96-well plates at 100 μl/well; and negative control and blank control wells were set on each plate. After adherent cell culture overnight, the diluted samples to be tested were added at 50 μl/well. The plates were placed in an incubator at 37° C., 5% CO2 and cultured for 68-72 hours. To each well, 15 μl (10% of the liquid volume in a well) of a color developing solution from CCK8 was added; and the plates were incubated at 37° C. for 45-70 minutes and each plate was read at 450 nm on a microplate reader. The data was edited using SoftMax Pro and a 4-P fitting curve was plotted.
as §2, with “Operations:” for “operations:”, “MDA-MB-468,” for “SK-BR-3, NCI-H226,”, “MDA-MB-468” for “SK-BR-3”, “cells/ml,” for “cells/ml, NCI-H226 was diluted to 2.0×10^4 cells/ml”

Row | Compound | IC50 ratio (MMAE/conjugate) [1] | IC50 [1] | IC50 ratio (MMAE/conjugate) ([2]; 22RV1) | IC50 [2] [nM] | IC50 (MMAE)/IC50 (conjugate) ([3]; CFPAC-1) | IC50 [3] [nM] | IC50 (MMAE)/IC50 (conjugate) ([4]; PANC-1) | IC50 [4] [nM]
1 | CC[C@H](C)[C@@H]([C@@H](CC(=O)N1CCC[C@H]1[C@H](OC)[C@@H](C)C(=O)N[C@H](C)[C@@H](O)c1ccccc1)OC)N(C)C(=O)[C@@H](NC(=O)[C@H](C(C)C)N(C)C(=O)OCc1ccc(NC(=O)C(CCCNC(N)=O)NC(=O)[C@@H](NC(=O)CCCCCN2C(=O)CC(SC[C@H](NC(=O)[C@H](CCCCN)NC(=O)[C@H](CC(=O)O)NC(=O)[C@H](CC(=O)O)NC(=O)Cc3ccc(CNC(=O)NCCCC[C@H](NC(=O)N[C@@H](CCC(=O)O)C(=O)O)C(=O)O)cc3)C(=O)N[C@@H](CCCCNC(=O)CC[C@H](NC(=O)c3ccc(NCc4cnc5[nH]c(N)nc(=O)c5n4)cc3)C(=O)O)C(N)=O)C2=O)C(C)C)cc1)C(C)C (stereo partly drawn) [CB-20BK] | 0.0267 | 95.8 nM | 0.013 | 502 | 0.027 | 557 | 0.020 | 126
2 | CC[C@H](C)[C@@H]([C@@H](CC(=O)N1CCC[C@H]1[C@H](OC)[C@@H](C)C(=O)N[C@H](C)[C@@H](O)c1ccccc1)OC)N(C)C(=O)[C@@H](NC(=O)[C@@H](NC)C(C)C)C(C)C [MMAE, monomethyl auristatin E] (H-[NMeV]V[Dil][Dolaproine]-X1) |  | 2.55 nM and 3 nM |  | 6.48 |  | 15 |  | 2
